According to paper PMC6206206, “Behavioral and Pharmacokinetic Profile of Indole-Derived Synthetic Cannabinoids JWH-073 and JWH-210 as Compared to the Phytocannabinoid Δ^9-THC in Rats” (Frontiers in Neuroscience, 2018):

How the values were obtained:
Wistar rats [1] = test: Open field test (locomotor activity, thigmotaxis, time in center); assay type: in vivo; settings: for locomotion in 5 min time intervals (open field): 1 h after administration, vs vehicle
Method: (§1) All behavioral experiments were performed 1 h after sc. drugs administration.
A square black plastic open field arena (68 × 68 × 30 cm) was placed in a soundproof and diffusely lit room. Each of animals was placed into the center of the arena, in a novel unfamiliar environment, and 1 h after drug administration the behavior was video-recorded for 30 min using the system EthoVision Color pro v. 3.0 (Noldus, NL). Locomotor activity was subsequently analyzed within 5 min blocks/time intervals (1–6). The calculation of the data was performed in the EthoVision software and corrected (smoothed) for movement deviations of < 3 cm. Initially total distance traveled per time block was calculated and data were plotted in the graphs. To evaluate the spatial characteristics of the locomotor activity such as thigmotaxis and time spent in the center of arena, the arena was virtually divided into 5 × 5 identical square zones with 16 located peripherally and nine centrally. Frequency (f) of appearances of the animal in different zones of the arena was used to calculate thigmotaxis (i) (i = ∑fperipheralzones / ∑fallzones) which is a number (value varying from 0 to 1) indicating the probability of appearance in peripheral zones. Time spent in the center of the arena (Tcenter) was calculated Tcenter = ∑timecentralzones (Balikova et al., [2014]; Horsley et al., [2016]; Palenicek et al., [2016]; Tyls et al., [2016]; Hlozek et al., [2017]; Sichova et al., [2017]; Stefkova et al., [2017]).
To evaluate the effect on the locomotion measured in 5 min intervals, two-way repeated measures ANOVA analysis (factor 1: drug; factor 2: time intervals) was used in software system IBM SPSS version 22. Significant main effects and interaction two-way repeated measures ANOVAs were followed with pairwise comparisons using independent t-test. For repeated measures ANOVAs, where Mauchly's test of sphericity was significant, Greenhouse-Geisser [Greenhouse-Geisser estimate of sphericity (ε) < 0.75 or Huynh-Feldt (ε) >0.75] correction are reported. Degrees of freedom were rounded to whole number for presentational purposes. For independent t-test, where Levene's test for equality of variances was significant, statistics corrected for unequal variances are given p < 0.05 (two tailed) was considered the minimal criterion for statistical significance. For multiple comparisons, t-test was used with Bonferroni correction. The total length of the trajectory over 30-min, thigmotaxis and time in the center, ASR, habituation and PPI were analyzed by one-way ANOVA analysis by using software STATISTICA version 9.0. Where appropriate, ANOVA analyses were followed by the Tukey post-hoc test. Statistical significance was set at p < 0.05 for all analyses.

Wistar rats [2] = test: Prepulse inhibition (PPI) of acoustic startle response (ASR); assay type: in vivo; settings: for alteration of ASR or PPI by acute treatment: all doses tested, sc., 1 h after administration
Method: as §1
The PPI of ASR took place in two ventilated startle chambers (SR-LAB, San Diego Instruments, California, USA) which were calibrated to ensure equivalent stabilimeter sensitivity between the chambers. The test consists of acclimatization and two sessions, as previuosly described (Direnberger et al., [2012]; Palenicek et al., [2016]; Tyls et al., [2016]; Hlozek et al., [2017]; Sichova et al., [2017]; Stefkova et al., [2017]). Briefly, acclimatization was performed 2 days before the test, when drug-free rats were habituated in 5 min session with five presentations of pulse alone stimuli (115 dB/20 ms) over background white noise (75 dB). On the day of test, the compounds or vehicle were administered sc. 1 h prior to PPI/ASR testing. After acclimatization (5 min with 75 dB background noise), the test started with a short session of six 40 ms 125 dB pulse trials to establish baseline ASR. It was followed by the second session consisting of trials presented in a pseudorandom order: (1) single pulse alone: 40 ms 125 dB; (2) trial of prepulse-pulse: 20 ms prepulse of 83 dB presented 30, 60, and 120 ms (average 70 ms) before 40 ms 125 dB pulse; (C) 60 ms no stimulus. Finally, six […] 125 dB pulse trials were delivered. Habituation was calculated by the percentage reduction in ASR from the initial six, to the final six pulse trials. PPI was calculated as: [100–(mean prepulse–pulse trials/mean pulse alone trials)^*100]. ASR was derived from mean pulse alone trials. Animals with an AVG response lower than 10 were excluded from further analysis as non-responders.
To evaluate the effect on the locomotion measured in 5 min intervals, two-way repeated measures ANOVA analysis (factor 1: drug; factor 2: time intervals) was used in software system IBM SPSS version 22. […] The total length of the trajectory over 30-min, thigmotaxis and time in the center, ASR, habituation and PPI were analyzed by one-way ANOVA analysis by using software STATISTICA version 9.0. […]

[3] = system: cannabinoid CB1 receptors; settings: cited from earlier work
mice = settings: 3–30 mg/kg; ref Marshell et al., 2014; cited from earlier work
[4] = Serum levels of JWH-073 and JWH-210 after sc. administration (LC-MS)
[5] = Serum levels of Δ^9-THC and its metabolites after sc. administration (GC-MS); settings: after Δ^9-THC 3 mg/kg sc.; for detectability in serum over the measurement intervals: 30 min, 1, 2, 4, 8, 24 h; for maximum serum concentration (Mean ± SEM): n = 6
[6] = 3 mg/kg sc., vs control, p < 0.01

CCCCn1cc(C(=O)c2cccc3ccccc23)c2ccccc21 [JWH-073, (1-butylindol-3-yl)-naphthalen-1-ylmethanone]
locomotion in 5 min time intervals (open field) (Wistar rats [1]; 0.1 mg/kg sc.): significantly increased locomotor activity at the 5-10 and 10-15 min time blocks
locomotion in 5 min time intervals (open field) (Wistar rats [1]; 0.5 mg/kg sc.): increased locomotion at 0–5, 5–10, 10–15, and 20–25 min onset
total length of the trajectory over 30-min (total locomotor activity) (Wistar rats [1]; 0.5 mg/kg sc., vs control group, p < 0.05): significantly increased locomotor activity
locomotion in 5 min time intervals (open field) (Wistar rats [1]; 5 mg/kg sc.): reduced the locomotor activity at 15–20 min time block
thigmotaxis (probability of appearance in peripheral zones) (Wistar rats [1]; 0.1, 0.5 and 5 mg/kg sc.): neither JWH-073 nor JWH-210 modified the thigmotaxis
time spent in the central zones of the open field (Wistar rats [1]; 0.1, 0.5 and 5 mg/kg sc.): neither JWH-073 nor JWH-210 modified
alteration of ASR or PPI by acute treatment (Wistar rats [2]): did not find significant alteration
CB1 binding affinity relative to Δ^9-THC (fold higher) ([3]; vs Δ^9-THC, ref Wiley et al., 1998, Aung et al., 2000, Brents et al., 2012): four-fold higher
locomotor activity (mice): dose-dependent reduced locomotor activity
detectability in serum over the measurement intervals ([4]; 0.5 mg/kg sc., 30 min, 1, 2, 4, 8, 24 h): detectable at all measurement intervals
maximum serum concentration (Mean ± SEM) ([4]; 0.5 mg/kg sc., rat serum, n = 8): 1.84 ± 0.06 ng/mL
Tmax ([4]; male, Wistar, rat, serum, sc, 0.5 mg/kg): 4 h
concentration at 24 h ([4]; male, Wistar, rat, serum, subcutaneous, 0.5 mg/kg): 0.41 ± 0.19 ng/mL

CCCCCc1cc(O)c2c(c1)OC(C)(C)[C@@H]1CCC(C(=O)O)=C[C@@H]21 [THC-COOH]
detectability in serum over the measurement intervals [5]: detectable as Δ^9-THC at all intervals
time of maximum serum concentration ([5]; rat serum): 1 h
maximum serum concentration (Mean ± SEM) ([5]; rat serum): 10.5 ± 7.27 ng/mL

CCCCCc1cc(O)c2c(c1)OC(C)(C)[C@@H]1CCC(C)=C[C@@H]21 [Δ^9-THC, Δ9-tetrahydrocannabinol]
detectability in serum over the measurement intervals [5]: detectable as Δ^9-THC at all intervals
time of maximum serum concentration ([5]; rat serum): 1 h
time of second serum peak ([5]; rat serum): 8 h
maximum serum concentration (Mean ± SEM) ([5]; rat serum): 12.1 ± 3.06 ng/mL
thigmotaxis (probability of appearance in peripheral zones) (Wistar rats [1]; [6]): decreased thigmotaxis
time spent in the center of the open field arena (Wistar rats [1]; [6]): increased time spent in central zone
total trajectory in the open field test (Wistar rats [1]; 1 or 3 mg/kg sc.): did not affect the total trajectory
locomotion in 5 min time intervals (open field) (Wistar rats [1]; 1 or 3 mg/kg sc.): neither a main effect of drug nor drug × time interval interaction were found
prepulse inhibition (PPI), post-hoc (Wistar rats [2]; 1 mg/kg sc., p = 0.06): slight not significant decrease of PPI
alteration of ASR or PPI by acute treatment (Wistar rats [2]): did not find significant alteration
Ki ([3]; ref Huffman et al., 2005, read-out: Ki, affinity for central and peripheral cannabinoid CB1 receptors): 41 ± 2 nM
